Measured values taken from US20260256923A1, “NEW RECRUITMENT ELEMENT OF UBIQUITIN LIGASE AND USE THEREOF” (SHENZHEN LINGGENE BIOTECH CO., LTD., priority 2023, published 2026).

Experiments:
[1] = biological target: T1, interaction between NCL and MDM2 (Homo sapiens, UniProt P19338); test: Co-immunoprecipitation of NCL and MDM2 from HeLa cell lysate, western blot; assay type: binding; conditions: 0-20 μM, 4° C. 6 h, IP with antibody against NCL
T1 construct: HeLa cervical cancer cells were lysed with an IP lysis solution; endogenous in cells; host or cells: HeLa cell lysate
Procedure: Co-immunoprecipitation (Co-IP) is a classical method for the study of protein interactions based on the specific interaction between an antibody and an antigen. It is an effective method to determine the physiological interaction between two proteins in intact cells.
HeLa cervical cancer cells were lysed with an IP lysis solution (purchased from Thermo Scientific, Cat. No.: 87788) and then incubated with AS 1411 or iSN04 at different concentrations (0 μM, 1 μM, 5 μM, 10 μM, and 20 μM) at 4° C. for 6 h. Subsequently, […] of an antibody against NCL was added, and the mixture was further incubated at 4° C. overnight. Protein A/G magnetic beads (purchased from Thermo Scientific, Cat. No.: 88802) were added, and the mixture was incubated with rotation at room temperature for 1.5 h. The bound NCL and its interacting proteins on the magnetic beads were washed with an IP lysis buffer (purchased from Thermo Scientific, Cat. No.: 87788), and an SDS-PAGE protein loading buffer (purchased from Beyotime, Cat. No.: P0015) was added. The mixture was heated to 100° C. and held for 10 min. The magnetic beads were adsorbed on a magnetic rack, and the supernatant was transferred into a new tube. Subsequently, western blot assay was performed to detect whether NCL bound to MDM2 and whether the binding was affected by AS 1411 or iSN04. […]

MDM2 = biological target: T2, MDM2 (Homo sapiens, UniProt P19338+Q00987); test: MDM2 protein degradation in A549 non-small cell lung cancer cells, western blot; assay type: cell-based
T2 construct: endogenous in cells; host or cells: A549
Procedure: (1) A549 non-small cell lung cancer cells were incubated with 200 nM AS1411-VH032, and corresponding cell samples were collected at time gradients of 0 h, 3 h, 6 h, 9 h, 12 h, and 24 h for protein extraction and subsequent western blot assay to detect protein degradation.
(2) A549 non-small cell lung cancer cells were incubated with AS1411-VH032 at concentrations of 0 nM, 50 nM, 100 nM, 150 nM, 200 nM, and 250 nM. After 3 h, cell samples were collected for protein extraction and subsequent western blot assay to detect protein degradation.
(3) A549 non-small cell lung cancer cells were incubated with 200 nM AS1411, VH032, AS1411-VH032, or AS1411+VH032. After 3 h, cell samples were collected for protein extraction and subsequent western blot assay to detect protein degradation.
(4) A549 non-small cell lung cancer cells were incubated with 200 nM AS1411-VH032 for 3 h, and proteasome inhibitor MG132 was added. Cell samples were collected for protein extraction and subsequent western blot assay.
(5) A549 non-small cell lung cancer cells were transfected with si-NC or si-NCL and subsequently incubated with 200 nM AS1411-VH032 for 3 h. Cell samples were collected for protein extraction and subsequent western blot assay.
(1) A549 non-small cell lung cancer cells were incubated with 1000 nM AS1411-AS1411, and corresponding cell samples were collected at time gradients of 0 h, 3 h, 6 h, 9 h, 12 h, and 24 h for protein extraction and subsequent western blot assay to detect protein degradation.
(2) A549 non-small cell lung cancer cells were incubated with AS1411-AS1411 at concentrations of 0 nM, 50 nM, 100 nM, 250 nM, 500 nM, and 1000 nM. After 12 h, cell samples were collected for protein extraction and subsequent western blot assay to detect protein degradation.
(3) A549 non-small cell lung cancer cells were incubated with 1000 nM AS1411, AS1411-AS1411, or AS1411+AS1411. After 12 h, cell samples were collected for protein extraction and subsequent western blot assay to detect protein degradation. […]

[2] = phase I and phase II clinical trials; cited from earlier work
NCL = NCL (Homo sapiens, UniProt P19338); test: Biotin-oligonucleotide pull-down from HeLa cell lysate, western blot (NCL); assay type: binding; set-up: HeLa cervical cancer cells were lysed with an IP lysis solution; endogenous in cells; host or cells: HeLa cell lysate; conditions: 5′-biotin label, 0 nM-20 μM
Procedure: HeLa cervical cancer cells were lysed with an IP lysis solution (purchased from Thermo Scientific, Cat. No.: 87788) and then incubated with a CRO (cytosine-rich oligonucleotide, negative control, SEQ ID NO: 13), AS1411, or iSN04 labeled by biotin at the 5′ end at different concentrations (0 nM, 200 nM, 500 nM, 1 μM, 5 μM, 10 μM, and 20 μM) at 4° C. for 6h. Subsequently, streptavidin agarose gel beads (purchased from cytiva, Cat. No.: 17511301) were added, and the mixture was further incubated at 4° C. overnight. After the bound biotin-labeled CRO, AS411, or iSN04 and its captured proteins on the gel beads were washed multiple times with an IP lysis buffer (purchased from Thermo Scientific, Cat. No.: 87788), an SDS-PAGE protein loading buffer (purchased from Beyotime, Cat. No.: P0015) was added, and the mixture was heated to 100° C. and held for 10 min. After centrifugation, the supernatant was collected as a pull-down product. The pull-down product was detected by western blot assay.

[3] = tested on: MCF 10A human normal mammary epithelial cells; test: Toxicity to normal cells, cell apoptosis proportion by flow cytometer; assay type: cell-based; conditions: 0-5000 nM, 4 days, medium renewed every day
Procedure: The toxicity of AS1411 to normal cells was compared with that of the small molecule ligand nutlin-3a of MDM2 to normal cells. AS1411 or nutlin-3a at different concentrations (0 nM, 500 nM, 1000 nM, and 5000 nM) was incubated with MCF 10A human normal mammary epithelial cells for 4 days, and the medium containing the respective concentrations of AS1411 or nutlin-3a was renewed every day. The cell apoptosis proportion was detected using a flow cytometer.

T2 sequence (Q00987 whole entry): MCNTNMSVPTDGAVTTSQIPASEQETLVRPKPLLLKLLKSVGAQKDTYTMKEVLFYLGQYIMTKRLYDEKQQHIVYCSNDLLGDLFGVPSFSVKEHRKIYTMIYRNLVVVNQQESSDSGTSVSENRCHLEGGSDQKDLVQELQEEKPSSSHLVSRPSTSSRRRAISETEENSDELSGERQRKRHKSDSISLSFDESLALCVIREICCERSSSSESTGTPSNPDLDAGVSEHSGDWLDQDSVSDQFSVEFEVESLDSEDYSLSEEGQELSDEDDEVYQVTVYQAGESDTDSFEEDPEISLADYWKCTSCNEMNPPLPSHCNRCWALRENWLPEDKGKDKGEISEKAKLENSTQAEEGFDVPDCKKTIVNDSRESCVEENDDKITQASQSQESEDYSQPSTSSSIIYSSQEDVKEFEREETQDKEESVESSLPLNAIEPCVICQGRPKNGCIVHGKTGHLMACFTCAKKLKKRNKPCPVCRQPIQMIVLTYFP
T2 sequence (P19338 2-710 limits assumed): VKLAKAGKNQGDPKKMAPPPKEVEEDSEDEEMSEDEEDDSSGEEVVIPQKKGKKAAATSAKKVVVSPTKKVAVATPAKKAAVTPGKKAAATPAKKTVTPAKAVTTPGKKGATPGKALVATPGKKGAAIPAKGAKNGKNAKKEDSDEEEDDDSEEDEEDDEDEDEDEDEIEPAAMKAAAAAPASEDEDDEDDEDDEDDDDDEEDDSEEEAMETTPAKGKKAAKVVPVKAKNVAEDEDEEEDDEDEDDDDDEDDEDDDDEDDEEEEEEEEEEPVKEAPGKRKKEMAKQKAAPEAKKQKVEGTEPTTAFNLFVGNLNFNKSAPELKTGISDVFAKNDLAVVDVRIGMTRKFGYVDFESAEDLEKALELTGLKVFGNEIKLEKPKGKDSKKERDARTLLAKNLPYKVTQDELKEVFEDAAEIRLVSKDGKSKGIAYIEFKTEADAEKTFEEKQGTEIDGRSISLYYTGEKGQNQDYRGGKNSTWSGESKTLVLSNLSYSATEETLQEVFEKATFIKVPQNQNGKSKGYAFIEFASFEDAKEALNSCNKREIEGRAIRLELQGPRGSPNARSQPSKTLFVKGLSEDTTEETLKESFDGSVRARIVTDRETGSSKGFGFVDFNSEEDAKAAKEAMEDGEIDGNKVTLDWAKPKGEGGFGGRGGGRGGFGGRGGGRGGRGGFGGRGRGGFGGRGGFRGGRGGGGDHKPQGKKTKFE
NCL, sequence (P19338 whole entry): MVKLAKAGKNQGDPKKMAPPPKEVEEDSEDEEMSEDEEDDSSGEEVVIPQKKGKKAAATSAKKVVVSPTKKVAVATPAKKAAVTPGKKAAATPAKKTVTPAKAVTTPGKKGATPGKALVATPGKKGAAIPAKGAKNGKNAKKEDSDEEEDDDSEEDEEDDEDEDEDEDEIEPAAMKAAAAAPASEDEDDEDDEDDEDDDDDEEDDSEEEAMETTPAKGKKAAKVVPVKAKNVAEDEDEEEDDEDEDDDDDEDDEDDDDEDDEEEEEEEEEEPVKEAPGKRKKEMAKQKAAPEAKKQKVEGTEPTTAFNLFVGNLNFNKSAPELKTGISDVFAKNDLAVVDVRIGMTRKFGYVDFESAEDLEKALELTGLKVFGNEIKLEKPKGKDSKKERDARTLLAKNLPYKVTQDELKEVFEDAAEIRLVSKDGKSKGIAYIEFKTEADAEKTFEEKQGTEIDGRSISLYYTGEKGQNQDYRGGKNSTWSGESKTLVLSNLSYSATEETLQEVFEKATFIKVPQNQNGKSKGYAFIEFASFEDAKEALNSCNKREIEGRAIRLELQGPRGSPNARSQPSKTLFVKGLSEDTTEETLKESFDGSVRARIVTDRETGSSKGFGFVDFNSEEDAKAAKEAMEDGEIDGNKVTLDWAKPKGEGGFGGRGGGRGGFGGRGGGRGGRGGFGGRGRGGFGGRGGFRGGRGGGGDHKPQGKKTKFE
T1 sequence (P19338 2-710 limits assumed): as the sequence (P19338 2-710 limits assumed) above

For “AS1411: DNA aptamer, GRO binding NCL, SEQ ID NO: 1: 5′-GGTGGTGGTGGTTGTGGTGGTGGTGG-3′”, the “effect on the interaction between NCL and MDM2” value [1] was “does not affect the interaction between NCL and MDM2”, the “protein level of MDM2” value (MDM2; A549, 200 nM, 3 h) was “neither AS1411, VH032, nor AS1411+VH032 can reduce the protein level of MDM2” and the “protein level of MDM2” value (MDM2; A549, 1000 nM, 12 h) was “neither AS1411 nor AS1411+AS1411 can reduce the protein level of MDM2”. For the same substance, the “safety in clinical trials” value [2] was “good safety”, the “capture of NCL” value (NCL) was “can capture NCL and MDM2 in a concentration-dependent manner” and the “toxicity to normal cells (cell apoptosis proportion)” value [3] was “has no significant toxicity”.
